Measurements as given in patent US5391744A (priority 1993, dated 1995).
Entries after “also recorded” stand apart in the source; their conditions may differ. Where two headings read alike, the source gives them in different places.

How the values were obtained:
dopamine transporter = dopamine transporter (Rattus norvegicus, UniProt P23977); test: displacement of [^3 H]mazindol binding from rat striatal membranes
rats = test: casual observation of animals treated with 2c; conditions: 0.8 mg/kg 2c; 24 hours following administration
[1] = system: rats trained to discriminate cocaine
[2] = molecular target: T1, dopamine transporter (high-affinity uptake of [^3 H]dopamine into striatal nerve endings) (Rattus norvegicus, UniProt P23977); test: inhibition of high-affinity uptake of [^3 H]dopamine into striatal nerve endings (synaptosomes); type: biochemical
T1 construct: striatal nerve endings (synaptosomes); from tissue; host or cells: striatal nerve endings (synaptosomes)
T1 sequence (P23977 whole entry): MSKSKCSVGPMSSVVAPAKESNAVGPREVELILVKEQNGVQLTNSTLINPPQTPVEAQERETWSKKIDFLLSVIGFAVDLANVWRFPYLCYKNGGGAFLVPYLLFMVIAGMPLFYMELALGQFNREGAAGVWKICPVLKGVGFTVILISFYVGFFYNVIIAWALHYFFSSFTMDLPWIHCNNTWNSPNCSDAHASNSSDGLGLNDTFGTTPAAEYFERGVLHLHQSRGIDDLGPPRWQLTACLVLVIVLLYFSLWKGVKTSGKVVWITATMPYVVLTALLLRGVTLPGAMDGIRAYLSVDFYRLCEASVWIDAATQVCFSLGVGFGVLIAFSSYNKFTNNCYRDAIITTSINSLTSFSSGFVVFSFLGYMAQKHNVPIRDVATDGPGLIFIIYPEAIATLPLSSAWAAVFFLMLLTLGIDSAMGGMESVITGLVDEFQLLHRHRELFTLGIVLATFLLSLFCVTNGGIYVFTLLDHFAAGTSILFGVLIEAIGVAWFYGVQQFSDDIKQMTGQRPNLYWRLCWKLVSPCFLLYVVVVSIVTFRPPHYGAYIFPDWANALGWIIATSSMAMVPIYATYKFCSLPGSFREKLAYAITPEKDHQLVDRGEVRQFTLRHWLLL

[3] = system: rats trained to discriminate cocaine; test: animal or person; conditions: Rattus norvegicus, ip, read-out: ED50 (50% cocaine-appropriate responding)
[4] = 0.05 mg/kg, 30 min, mean ± S.E.M.
[5] = 0.05 mg/kg, 120 min, mean ± S.E.M.
[6] = 0.05 mg/kg, 240 min, mean ± S.E.M.
[7] = 0.1 mg/kg, 30 min, mean ± S.E.M.
[8] = 0.1 mg/kg, 120 min, mean ± S.E.M.
[9] = 0.1 mg/kg, 240 min, mean ± S.E.M.
[10] = 0.2 mg/kg, 30 min, mean ± S.E.M.
[11] = 0.2 mg/kg, 240 min, mean ± S.E.M.
[12] = 0.4 mg/kg, 30 min, mean ± S.E.M.
[13] = 0.4 mg/kg, 120 min, mean ± S.E.M.
[14] = 0.4 mg/kg, 240 min, mean ± S.E.M.
[15] = 0.8 mg/kg, 30 min, mean ± S.E.M.

dopamine transporter, sequence (P23977 whole entry): as above

SMILES: C=C[C@H]1[C@@H](c2ccc(Cl)cc2)C[C@@H]2CC[C@H]1N2C [Compound 2c, 3β-(4-Chlorophenyl)-2β-vinyltropane]
- IC50 (dopamine transporter): 1.2 ± 0.3 nM
- potency compared with 1d (dopamine transporter; relative to ester counterpart 1d): slightly more potent than the "Win" type compound 1d; also recorded: slightly more potent than its ester counterpart 1d
- hyperactivity (rats): still hyperactive 24 hours following administration
- n/N (animals completing 20 responses / tested) ([1]; 0.05 mg/kg, 30 min): 7/7
- % Drug responses [1, 4]: 19 ± 4%
- Rate (responses/min) [1, 4]: 29.6 ± 9 responses/min
- n/N (animals completing 20 responses / tested) ([1]; 0.05 mg/kg, 120 min): 7/7
- % Drug responses [1, 5]: 22 ± 14%
- Rate (responses/min) [1, 5]: 18.4 ± 6 responses/min
- n/N (animals completing 20 responses / tested) ([1]; 0.05 mg/kg, 240 min): 7/7
- % Drug responses [1, 6]: 14 ± 14%
- Rate (responses/min) [1, 6]: 28.3 ± 5 responses/min
- n/N (animals completing 20 responses / tested) ([1]; 0.1 mg/kg, 30 min): 7/7
- % Drug responses [1, 7]: 40 ± 17%
- Rate (responses/min) [1, 7]: 37.1 ± 6 responses/min
- n/N (animals completing 20 responses / tested) ([1]; 0.1 mg/kg, 120 min): 7/7
- % Drug responses [1, 8]: 75 ± 16%
- Rate (responses/min) [1, 8]: 25.7 ± 5 responses/min
- n/N (animals completing 20 responses / tested) ([1]; 0.1 mg/kg, 240 min): 7/7
- % Drug responses [1, 9]: 61 ± 17%
- Rate (responses/min) [1, 9]: 23.5 ± 4 responses/min
- n/N (animals completing 20 responses / tested) ([1]; 0.2 mg/kg, 30 min): 7/7
- % Drug responses [1, 10]: 83 ± 10%
- Rate (responses/min) [1, 10]: 26.2 ± 6 responses/min
- n/N (animals completing 20 responses / tested) ([1]; 0.2 mg/kg, 120 min): 7/7
- % Drug responses ([1]; 0.2 mg/kg, 120 min, mean): 100%
- Rate (responses/min) ([1]; 0.2 mg/kg, 120 min, mean ± S.E.M.): 46.8 ± 9 responses/min
- n/N (animals completing 20 responses / tested) ([1]; 0.2 mg/kg, 240 min): 7/7
- % Drug responses [1, 11]: 98 ± 1%
- Rate (responses/min) [1, 11]: 47.9 ± 10 responses/min
- n/N (animals completing 20 responses / tested) ([1]; 0.4 mg/kg, 30 min): 7/7
- % Drug responses [1, 12]: 99 ± 1%
- Rate (responses/min) [1, 12]: 52.8 ± 9 responses/min
- n/N (animals completing 20 responses / tested) ([1]; 0.4 mg/kg, 120 min, * intense stereotypic response, failed to complete session): 3/5
- % Drug responses [1, 13]: 72 ± 28%
- Rate (responses/min) [1, 13]: 24.9 ± 18 responses/min
- n/N (animals completing 20 responses / tested) ([1]; 0.4 mg/kg, 240 min, * intense stereotypic response, failed to complete session): 4/5
- % Drug responses [1, 14]: 91 ± 9%
- Rate (responses/min) [1, 14]: 23.6 ± 18 responses/min
- n/N (animals completing 20 responses / tested) ([1]; 0.8 mg/kg, 30 min): 7/7
- % Drug responses [1, 15]: 93 ± 5%
- Rate (responses/min) [1, 15]: 33.5 ± 9 responses/min
- % Drug responses ([1]; 0.8 mg/kg, 120 min): 95%
- Rate (responses/min) ([1]; 0.8 mg/kg, 120 min): 7.7 responses/min
- n/N (animals completing 20 responses / tested) ([1]; 0.8 mg/kg, 120 min, * intense stereotypic response, failed to complete session): 1/7
- % Drug responses ([1]; 0.8 mg/kg, 240 min): 100%
- n/N (animals completing 20 responses / tested) ([1]; 0.8 mg/kg, 240 min, * intense stereotypic response, failed to complete session): 3/7
- Rate (responses/min) ([1]; 0.8 mg/kg, 240 min, mean ± S.E.M.): 39.1 ± 1 responses/min
- complete cocaine-like responding ([1]; 0.2 and 0.4 mg/kg, 30 min injection period): induced complete cocaine-line responding in all animals
- response rates ([1]; in words, across test doses): stable across the different test doses of 2c, with the exception of the highest dose (0.8 mg/kg) of 2c which reduced response rates
- substitution for the cocaine cue / drug-appropriate responding ([1]; in words, dose-dependence over the tested doses): dose-dependent substitution for the cocaine cue
- duration of action ([1]; in words, injection interval 30-240 min): long duration of action
- IC50 [2]: 3.2 ± 0.6 nM
- ED50 ([3]; 0.5 h): 0.11 mg/kg
- ED50 ([3]; 2 h): 0.08 mg/kg
- ED50 ([3]; 4 h): 0.09 mg/kg
